The values below come from ChEMBL document CHEMBL3596146, “Design, synthesis, and biological evaluation of a series of alkoxy-3-indolylacetic acids as peroxisome proliferator-activated receptor γ/δ agonists” (Bioorg Med Chem, 2015).

The source made the active and inactive calls. No cut-off for these calls is given here.

Data set [1] deals with T1, Peroxisome proliferator-activated receptor alpha (Homo sapiens, UniProt Q07869).
T1 sequence (Q07869 whole entry): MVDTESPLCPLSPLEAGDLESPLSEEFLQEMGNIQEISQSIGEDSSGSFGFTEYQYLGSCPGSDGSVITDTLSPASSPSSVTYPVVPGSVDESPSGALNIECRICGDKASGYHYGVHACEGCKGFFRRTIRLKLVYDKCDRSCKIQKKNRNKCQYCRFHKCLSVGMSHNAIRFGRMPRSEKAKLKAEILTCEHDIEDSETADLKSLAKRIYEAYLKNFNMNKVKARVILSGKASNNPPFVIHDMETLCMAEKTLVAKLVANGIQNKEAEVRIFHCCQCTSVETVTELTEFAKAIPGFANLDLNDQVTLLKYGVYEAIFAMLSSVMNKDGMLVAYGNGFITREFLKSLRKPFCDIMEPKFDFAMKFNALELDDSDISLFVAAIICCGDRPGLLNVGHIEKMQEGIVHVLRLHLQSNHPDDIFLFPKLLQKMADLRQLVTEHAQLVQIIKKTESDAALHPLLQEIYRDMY
In words: Agonist activity at PPAR-alpha (unknown origin) expressed in CV-1 cells co-transfected with tk-PPRE-luciferase vector after 24 hrs by transactivation assay. The format is cell-based.

Data set [2] in a line: Metabolic stability in mouse liver microsomes at 1 uM after 30 mins measured under phase 1 reaction by LC/MS/MS analysis. The format is ADME. Conditions: 0.5 h. (In general: Microsomes from liver hold many membrane-bound enzymes, among them those of drug oxidation.)
In data set [3] the test system is Liver microsome. Briefly: Metabolic stability in human liver microsomes at 1 uM after 30 mins measured under phase 1 reaction by LC/MS/MS analysis. Type of data set: ADME. The settings on record: 0.5 h.
For data set [4], the target named is T2, Peroxisome proliferator-activated receptor gamma (Homo sapiens) (UniProt P37231).
T2 sequence (whole entry): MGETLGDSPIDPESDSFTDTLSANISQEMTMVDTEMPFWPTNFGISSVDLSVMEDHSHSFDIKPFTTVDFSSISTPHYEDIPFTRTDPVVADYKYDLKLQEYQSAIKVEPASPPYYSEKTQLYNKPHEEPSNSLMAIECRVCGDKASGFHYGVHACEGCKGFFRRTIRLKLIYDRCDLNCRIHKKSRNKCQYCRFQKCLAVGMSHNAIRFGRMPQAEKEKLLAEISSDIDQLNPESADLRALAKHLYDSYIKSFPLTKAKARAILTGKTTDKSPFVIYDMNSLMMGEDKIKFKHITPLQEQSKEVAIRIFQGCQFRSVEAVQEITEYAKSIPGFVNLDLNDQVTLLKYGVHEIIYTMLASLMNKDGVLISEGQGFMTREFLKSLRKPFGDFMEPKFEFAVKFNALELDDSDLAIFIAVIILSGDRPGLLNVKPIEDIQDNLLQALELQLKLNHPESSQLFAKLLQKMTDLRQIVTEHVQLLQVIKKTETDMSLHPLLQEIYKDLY
In words: Agonist activity at PPAR-gamma (unknown origin) expressed in CV-1 cells co-transfected with tk-PPRE-luciferase vector at 10 uM after 24 hrs by transactivation assay relative to rosiglitazone. Type of data set: cell-based.

Data set [5] has as its target T3, Peroxisome proliferator-activated receptor alpha (Homo sapiens) (UniProt Q07869).
T3 sequence (whole entry): T1 sequence (Q07869 whole entry)
Briefly: Agonist activity at PPAR-alpha (unknown origin) expressed in CV-1 cells co-transfected with tk-PPRE-luciferase vector at 10 uM after 24 hrs by transactivation assay relative to GW7647. The format is cell-based.

The target of data set [6] is T4, Peroxisome proliferator-activated receptor gamma (Homo sapiens, UniProt P37231).
T4 sequence (P37231 whole entry): T2 sequence (whole entry)
Briefly: Agonist activity at PPAR-gamma (unknown origin) expressed in CV-1 cells co-transfected with tk-PPRE-luciferase vector after 24 hrs by transactivation assay. Type of data set: cell-based.

The target in data set [7] is T5, Peroxisome proliferator-activated receptor delta (Homo sapiens, UniProt Q03181).
T5 sequence (Q03181 whole entry): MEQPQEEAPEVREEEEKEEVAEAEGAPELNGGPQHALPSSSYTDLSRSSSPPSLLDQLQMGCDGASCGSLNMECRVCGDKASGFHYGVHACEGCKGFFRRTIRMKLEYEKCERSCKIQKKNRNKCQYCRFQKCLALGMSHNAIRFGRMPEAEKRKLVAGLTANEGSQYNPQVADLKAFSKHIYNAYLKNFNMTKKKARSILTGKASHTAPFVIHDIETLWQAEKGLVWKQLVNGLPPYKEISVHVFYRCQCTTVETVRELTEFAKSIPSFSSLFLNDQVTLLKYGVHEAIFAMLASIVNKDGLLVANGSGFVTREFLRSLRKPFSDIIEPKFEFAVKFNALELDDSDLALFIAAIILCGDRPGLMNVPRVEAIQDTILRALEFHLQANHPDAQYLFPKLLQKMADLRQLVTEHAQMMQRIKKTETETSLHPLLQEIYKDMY
In words: Agonist activity at PPAR-delta (unknown origin) expressed in HEK293t cells co-transfected with tk-PPRE-luciferase vector after 24 hrs by transactivation assay. The format is cell-based, HEK-293T.

The target in data set [8] is T6, Peroxisome proliferator-activated receptor delta (Homo sapiens) (UniProt Q03181).
T6 sequence (whole entry): T5 sequence (Q03181 whole entry)
Briefly: Agonist activity at PPAR-delta (unknown origin) expressed in HEK293t cells co-transfected with tk-PPRE-luciferase vector at 10 uM after 24 hrs by transactivation assay relative to GW0742. Type of data set: cell-based. The settings on record: HEK-293T.

The nature of data set [9]: Retention time of the compound by HPLC analysis. The format is physicochemical.
Data set [10] has as its system Mus musculus. Briefly: Increase in body weight in C57BLKS/J-Lepr/Lepr db/db mouse at 10 mg/kg, po qd for 18 days administered via gavage measured on day 16 relative to untreated control. The format is ADME, organism-based. The settings on record: in vivo, 432 h.
Data set [11] relates to Mus musculus. Briefly: Decrease in fasting blood glucose level in C57BLKS/J-Lepr/Lepr db/db mouse at 10 mg/kg, po qd for 18 days administered via gavage by ELISA. The format is functional, organism-based. Background: In an ELISA, binding on a coated surface is turned into a signal by an enzyme label.
Data set [12] relates to Mus musculus. Briefly: Decrease in serum Hb1Ac level in C57BLKS/J-Lepr/Lepr db/db mouse at 10 mg/kg, po qd for 18 days administered via gavage by ELISA. The format is functional, organism-based.
Data set [13] relates to Mus musculus. Briefly: Increase in triglyceride content in C57BLKS/J-Lepr/Lepr db/db mouse liver at 10 mg/kg, po administered via gavage by hematoxylin-eosin staining. The format is functional.
Data set [14] relates to Mus musculus. Briefly: Decrease in serum insulin level in C57BLKS/J-Lepr/Lepr db/db mouse at 10 mg/kg, po qd for 18 days administered via gavage by ELISA. Type of data set: functional, organism-based.
The subject of data set [15] is Liver microsome. Briefly: Metabolic stability in human liver microsomes at 1 uM after 30 mins measured under phase 2 reaction by LC/MS/MS analysis. Conditions: 0.5 h. Type of data set: ADME.
Data set [16] in a line: Metabolic stability in mouse liver microsomes at 1 uM after 30 mins measured under phase 2 reaction by LC/MS/MS analysis. The format is ADME. The settings on record: 0.5 h.

With `Cc1ccc(COc2cccc(OCCCOc3ccc4[nH]cc(CC(=O)O)c4c3)c2)cc1`, the EC50 stood at 13.8 µM in data set [1], 1.7 µM in data set [6] and 7.2 µM in data set [7]. In addition, the Stability result (in [2]; in the data set with Liver microsome [3]) was “Stable” in each case. The Emax in [4] amounted to 134%; in data set [5], 69.3%; in [8] it was 84.1%. Moreover, the Retention_time in data set [9] is 8.984 min.
On to `COc1ccc(COc2cccc(OCCOc3ccc4c(c3)c(CC(=O)O)cn4Cc3ccccc3)c2)cc1`, for which the values for the EC50 in data set [1], in data set [6] and in data set [7] were 5.9 µM, 1.9 µM and 6.3 µM, respectively. The figures for the Stability entry (in data set [2]; with Liver microsome [3]) were “Stable” and “Unstable”, respectively. Besides, the Emax came out at 90.9% in data set [4], 25.8% in data set [5] and 122% in data set [8]. This compound also displayed a Retention_time in data set [9] of 10.127 min.
Consider `O=C(O)Cc1cn(Cc2ccc(F)cc2)c2ccc(OCCCOc3cccc(OCc4ccc(Cl)cc4)c3)cc12`, for which the results for the Emax in data set [4], in data set [5] and in [8] were 92.7%, 34.3% and 133%, respectively. Also, a half-maximal response in data set [7] (EC50) required 0.75 µM. In [9], this compound gave a Retention_time of 23.205 min.
The compound `CN(CCOc1ccc(CC2SC(=O)NC2=O)cc1)c1ccccn1` (stereo not drawn) [ROSIGLITAZONE] returned an increase with Mus musculus [10] of 10%. Moreover, the inhibition result in the data set on Mus musculus [11], in the data set on Mus musculus [12] and with Mus musculus [14] was “Active” each time. Further, the Activity in the data set with Mus musculus [13] stood at 22%.
As to `Cc1cccc(OCCOc2ccc3c(c2)c(CC(=O)O)cn3Cc2ccccc2)c1`, the Emax was determined as 36.5% in data set [4], 10.9% in data set [5] and 13.2% in data set [8]. The compound further yielded a Retention_time in [9] of 8.19 min.
For `O=C(O)Cc1c[nH]c2ccc(OCCCOc3cccc(Oc4ccc(Cl)cc4)c3)cc12`, in that order: 106%, 59.2%, 37.9% and 9.322 min.
For `O=C(O)Cc1cn(Cc2ccccc2)c2ccc(OCCCOc3cccc(OCc4ccc(C(F)(F)F)cc4)c3)cc12`, in that order: 77.9%, 12.2%, 87.4% and 24.08 min.
The corresponding values for `COc1ccc(Oc2cccc(OCCCOc3ccc4[nH]cc(CC(=O)O)c4c3)c2)cc1` are 89.7%, 45%, 25.6% and 6.53 min.
In the case of `O=C(O)Cc1cn(Cc2ccccc2)c2ccc(OCCCOc3cccc(Oc4ccc(C(F)(F)F)cc4)c3)cc12`, the Emax in [4] is 85.2%; in [5], 25.9%; in data set [8] it was 53.2%. The compound further gave a Retention_time in data set [9] of 25.922 min.
For `Cn1cc(CC(=O)O)c2cc(OCCCOc3cccc(OCc4ccc(Cl)cc4)c3)ccc21`, in that order: 110%, 37.5%, 70.8% and 13.52 min.
The corresponding values for `Cc1ccc(COc2cccc(OCCOc3ccc4c(c3)c(CC(=O)O)cn4Cc3ccccc3)c2)cc1` are 101%, 38.5%, 87.2% and 16.602 min.
The corresponding values for `Cc1ccc(COc2ccc(OCCCOc3ccc4[nH]cc(CC(=O)O)c4c3)cc2)cc1` are 91.7%, 41.2%, 53.3% and 7.89 min.
`COc1ccc(COc2cccc(OCCOc3ccc4[nH]cc(CC(=O)O)c4c3)c2)cc1`: the Emax in data set [4] stood at 93.4%; in data set [5], 87.5%; in [8], 70%. The Retention_time in data set [9] was 5.651 min.
For `O=C(O)Cc1c[nH]c2ccc(OCCCOc3cccc(Oc4ccccc4)c3)cc12`, the Emax in data set [4] was 92.5%; in data set [5] it was 45.4%; in data set [8], 23.8%. Also, the Retention_time in data set [9] was found to be 7.305 min.
For `O=C(O)Cc1c[nH]c2ccc(OCCCOc3cccc(OCc4ccccc4)c3)cc12`, in that order: 73.1%, 22.6%, 21.7% and 6.379 min.
The corresponding values for `O=C(O)Cc1c[nH]c2ccc(OCCCOc3ccc(OCc4ccc(Cl)cc4)cc3)cc12` are 99.4%, 18.9%, 89.5% and 9.166 min.
For `O=C(O)Cc1c[nH]c2ccc(OCCOc3cccc(OCc4ccc(Cl)cc4)c3)cc12`, in that order: 79.6%, 42.8%, 79% and 7.623 min.
As to `Cc1ccc(COc2cccc(OCCCOc3ccc4c(CC(=O)O)c[nH]c4c3)c2)cc1`, the Emax in data set [4] amounted to 84.3%; in data set [5] it was 23.4%; in data set [8], 37.2%. The compound also gave a Retention_time in data set [9] of 9.005 min.
On to `Cc1ccc(COc2cccc(OCCCOc3ccc4c(CC(=O)O)cn(Cc5ccccc5)c4c3)c2)cc1`, for which the EC50 was determined as 19.2 µM in data set [1], 1.3 µM in data set [6] and 9.4 µM in data set [7]. Moreover, the Stability result (in data set [2]; with Liver microsome [3]; in the data set on Liver microsome [15]; in data set [16]) was “Stable” in each case. Further, the Emax in data set [4] was 130%; in data set [5] it was 26.5%; in data set [8] it was 90.2%. In addition, the Retention_time in [9] is 18.125 min.
Regarding `O=C(O)Cc1c[nH]c2ccc(OCCCOc3cccc(OCc4ccc(C(F)(F)F)cc4)c3)cc12`, the Emax in [4] was 100%; in [5], 28.2%; in [8] it was 71.9%. In data set [9], this compound had a Retention_time of 9.707 min.
For `O=C(O)Cc1c[nH]c2ccc(OCCCOc3cccc(Oc4ccc(C(F)(F)F)cc4)c3)cc12`, in that order: 119%, 61.1%, 43.2% and 9.685 min.

The EC50 is the concentration that produces a half-maximal response. Higher therefore signals a need for much substance.
